Test results: PubChem BioAssay (NCI)
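48-hour exposure; five concentrations; linearly interpolated endpoints. TGI: concentration producing complete growth inhibition.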

Tests used:
Assay in all cases: NCI-60 cell line screen, 48 h
HOP-92 NSCLC = test system: HOP-92 NSCLC
HS 578T breast = test system: HS 578T breast
HCC-2998 colon = test system: HCC-2998 colon
OVCAR-8 ovarian = test system: OVCAR-8 ovarian
IGROV1 ovarian = test system: IGROV1 ovarian
NCI/ADR-RES ovarian = test system: NCI/ADR-RES ovarian
SK-OV-3 ovarian = test system: SK-OV-3 ovarian
UO-31 renal = test system: UO-31 renal
EKVX NSCLC = test system: EKVX NSCLC
HL-60(TB) leukemia = test system: HL-60(TB) leukemia
A498 renal = test system: A498 renal
MALME-3M melanoma = test system: MALME-3M melanoma
KM12 colon = test system: KM12 colon
NCI-H226 lung = test system: NCI-H226 lung
MDA-N = test system: MDA-N
SF-295 CNS = test system: SF-295 CNS
SK-MEL-5 melanoma = test system: SK-MEL-5 melanoma
M14 melanoma = test system: M14 melanoma
HOP-62 NSCLC = test system: HOP-62 NSCLC
TK-10 renal = test system: TK-10 renal
OVCAR-4 ovarian = test system: OVCAR-4 ovarian
OVCAR-3 ovarian = test system: OVCAR-3 ovarian
RPMI-8226 leukemia = test system: RPMI-8226 leukemia
RXF 393 renal = test system: RXF 393 renal
SNB-75 CNS = test system: SNB-75 CNS
MCF7 breast = test system: MCF7 breast
NCI-H23 lung = test system: NCI-H23 lung
A549 NSCLC = test system: A549 NSCLC
MDA-MB-231 breast = test system: MDA-MB-231 breast
MDA-MB-435 = test system: MDA-MB-435
K-562 leukemia = test system: K-562 leukemia
OVCAR-5 ovarian = test system: OVCAR-5 ovarian
U251 CNS = test system: U251 CNS
UACC-62 melanoma = test system: UACC-62 melanoma
UACC-257 melanoma = test system: UACC-257 melanoma
SN12C renal = test system: SN12C renal
PC-3 prostate = test system: PC-3 prostate
T-47D breast = test system: T-47D breast
COLO 205 colon = test system: COLO 205 colon
SK-MEL-2 melanoma = test system: SK-MEL-2 melanoma
HCT-116 colon = test system: HCT-116 colon
ACHN renal = test system: ACHN renal
SF-539 CNS = test system: SF-539 CNS
HT29 colon = test system: HT29 colon
SR leukemia = test system: SR leukemia
HCT-15 colon = test system: HCT-15 colon
MOLT-4 leukemia = test system: MOLT-4 leukemia
LOX IMVI melanoma = test system: LOX IMVI melanoma
786-0 renal = test system: 786-0 renal
NCI-H522 lung = test system: NCI-H522 lung
CCRF-CEM leukemia = test system: CCRF-CEM leukemia
SK-MEL-28 melanoma = test system: SK-MEL-28 melanoma
SW-620 colon = test system: SW-620 colon
SF-268 CNS = test system: SF-268 CNS
DU-145 prostate = test system: DU-145 prostate
SNB-19 CNS = test system: SNB-19 CNS
NCI-H460 lung = test system: NCI-H460 lung
CAKI-1 renal = test system: CAKI-1 renal

CC(=O)c1c2c(cc3c1CC1(Cc4cc5c(cc4C1)CCCC5)C3)CCCC2 was tested, and the TGI (HOP-92 NSCLC) was > 100 µM, the TGI (HS 578T breast) was > 100 µM and the TGI (HCC-2998 colon) was > 100 µM. For the same molecule, the TGI (OVCAR-8 ovarian) was > 100 µM, the TGI (IGROV1 ovarian) was > 100 µM and the TGI (NCI/ADR-RES ovarian) was > 100 µM. The TGI (SK-OV-3 ovarian) was > 100 µM, the TGI (UO-31 renal) was > 100 µM and the TGI (EKVX NSCLC) was > 100 µM. For the same molecule, the TGI (HL-60(TB) leukemia) was 31.4 µM, the TGI (A498 renal) was > 100 µM and the TGI (MALME-3M melanoma) was > 100 µM. The TGI (KM12 colon) was > 100 µM, the TGI (NCI-H226 lung) was > 100 µM and the TGI (MDA-N) was 56.5 µM. For the same molecule, the TGI (SF-295 CNS) was > 100 µM, the TGI (SK-MEL-5 melanoma) was 22.3 µM and the TGI (M14 melanoma) was > 100 µM. For the same molecule, the TGI (HOP-62 NSCLC) was > 100 µM, the TGI (TK-10 renal) was > 100 µM and the TGI (OVCAR-4 ovarian) was > 100 µM. For the same molecule, the TGI (OVCAR-3 ovarian) was > 100 µM, the TGI (RPMI-8226 leukemia) was 81.8 µM and the TGI (RXF 393 renal) was > 100 µM. For the same molecule, the TGI (SNB-75 CNS) was 72.2 µM, the TGI (MCF7 breast) was 56.9 µM and the TGI (NCI-H23 lung) was > 100 µM. The TGI (A549 NSCLC) was > 100 µM, the TGI (MDA-MB-231 breast) was > 100 µM and the TGI (MDA-MB-435) was 53.1 µM. For the same molecule, the TGI (K-562 leukemia) was 29.4 µM, the TGI (OVCAR-5 ovarian) was > 100 µM and the TGI (U251 CNS) was > 100 µM. For the same molecule, the TGI (UACC-62 melanoma) was > 100 µM, the TGI (UACC-257 melanoma) was 55.7 µM and the TGI (SN12C renal) was > 100 µM. For the same molecule, the TGI (PC-3 prostate) was > 100 µM, the TGI (T-47D breast) was > 100 µM and the TGI (COLO 205 colon) was > 100 µM. The TGI (SK-MEL-2 melanoma) was 51.3 µM, the TGI (HCT-116 colon) was > 100 µM and the TGI (ACHN renal) was 38.8 µM. The TGI (SF-539 CNS) was > 100 µM, the TGI (HT29 colon) was > 100 µM and the TGI (SR leukemia) was 17.5 µM. The TGI (HCT-15 colon) was > 100 µM, the TGI (MOLT-4 leukemia) was 38.5 µM and the TGI (LOX IMVI melanoma) was > 100 µM. The TGI (786-0 renal) was > 100 µM and the TGI (NCI-H522 lung) was > 100 µM.
CCOC(=O)c1c(SC(=O)C(C)(C)Oc2ccc(Cl)cc2)n(-c2ccccc2)c(=S)n(-c2ccccc2)c1=O was tested, and the TGI (HOP-92 NSCLC) was > 100 µM, the TGI (CCRF-CEM leukemia) was 75.5 µM and the TGI (SK-MEL-28 melanoma) was > 100 µM. The TGI (HS 578T breast) was > 100 µM, the TGI (SW-620 colon) was 55.2 µM and the TGI (HCC-2998 colon) was > 100 µM. For the same molecule, the TGI (OVCAR-8 ovarian) was 42.1 µM, the TGI (IGROV1 ovarian) was 36 µM and the TGI (NCI/ADR-RES ovarian) was > 100 µM. The TGI (SK-OV-3 ovarian) was > 100 µM, the TGI (EKVX NSCLC) was > 100 µM and the TGI (HL-60(TB) leukemia) was > 100 µM. For the same molecule, the TGI (A498 renal) was 98.9 µM, the TGI (MALME-3M melanoma) was 72.7 µM and the TGI (KM12 colon) was 50 µM. The TGI (NCI-H226 lung) was > 100 µM, the TGI (MDA-N) was > 100 µM and the TGI (SF-268 CNS) was 43.9 µM. For the same molecule, the TGI (SF-295 CNS) was > 100 µM, the TGI (M14 melanoma) was > 100 µM and the TGI (HOP-62 NSCLC) was 60.1 µM. The TGI (TK-10 renal) was > 100 µM, the TGI (OVCAR-4 ovarian) was > 100 µM and the TGI (OVCAR-3 ovarian) was > 100 µM. The TGI (RXF 393 renal) was 73.4 µM, the TGI (SNB-75 CNS) was > 100 µM and the TGI (MCF7 breast) was 57.2 µM. For the same molecule, the TGI (NCI-H23 lung) was > 100 µM, the TGI (A549 NSCLC) was 65.3 µM and the TGI (MDA-MB-231 breast) was 47.9 µM. For the same molecule, the TGI (MDA-MB-435) was > 100 µM, the TGI (K-562 leukemia) was > 100 µM and the TGI (OVCAR-5 ovarian) was > 100 µM. For the same molecule, the TGI (U251 CNS) was 41 µM, the TGI (UACC-62 melanoma) was > 100 µM and the TGI (UACC-257 melanoma) was > 100 µM. The TGI (SN12C renal) was 67.8 µM, the TGI (T-47D breast) was > 100 µM and the TGI (COLO 205 colon) was 39.3 µM. For the same molecule, the TGI (DU-145 prostate) was > 100 µM, the TGI (SNB-19 CNS) was > 100 µM and the TGI (HCT-116 colon) was 49 µM. For the same molecule, the TGI (ACHN renal) was 44.4 µM, the TGI (SF-539 CNS) was 41.7 µM and the TGI (HT29 colon) was 66.4 µM. The TGI (SR leukemia) was 52.3 µM, the TGI (HCT-15 colon) was > 100 µM and the TGI (MOLT-4 leukemia) was 58 µM. The TGI (LOX IMVI melanoma) was > 100 µM, the TGI (NCI-H460 lung) was 52.8 µM and the TGI (786-0 renal) was > 100 µM. The TGI (CAKI-1 renal) was > 100 µM and the TGI (NCI-H522 lung) was 84.3 µM.
CC(C)(C)C(=O)C(C(=O)c1ccccc1)C(=O)C(C)(C)C was tested, and the TGI (HOP-92 NSCLC) was > 100 µM, the TGI (CCRF-CEM leukemia) was > 100 µM and the TGI (SK-MEL-28 melanoma) was > 100 µM. The TGI (HS 578T breast) was > 100 µM, the TGI (SW-620 colon) was > 100 µM and the TGI (HCC-2998 colon) was > 100 µM. For the same molecule, the TGI (OVCAR-8 ovarian) was > 100 µM, the TGI (IGROV1 ovarian) was > 100 µM and the TGI (NCI/ADR-RES ovarian) was > 100 µM. The TGI (SK-OV-3 ovarian) was > 100 µM, the TGI (UO-31 renal) was > 100 µM and the TGI (EKVX NSCLC) was > 100 µM. The TGI (HL-60(TB) leukemia) was > 100 µM, the TGI (A498 renal) was > 100 µM and the TGI (MALME-3M melanoma) was > 100 µM. The TGI (KM12 colon) was > 100 µM, the TGI (NCI-H226 lung) was > 100 µM and the TGI (MDA-N) was > 100 µM. For the same molecule, the TGI (SF-268 CNS) was > 100 µM, the TGI (SF-295 CNS) was > 100 µM and the TGI (SK-MEL-5 melanoma) was > 100 µM. The TGI (M14 melanoma) was > 100 µM, the TGI (HOP-62 NSCLC) was > 100 µM and the TGI (TK-10 renal) was > 100 µM. For the same molecule, the TGI (OVCAR-4 ovarian) was > 100 µM, the TGI (OVCAR-3 ovarian) was > 100 µM and the TGI (RPMI-8226 leukemia) was > 100 µM. For the same molecule, the TGI (RXF 393 renal) was > 100 µM, the TGI (SNB-75 CNS) was > 100 µM and the TGI (MCF7 breast) was > 100 µM. For the same molecule, the TGI (NCI-H23 lung) was > 100 µM, the TGI (A549 NSCLC) was > 100 µM and the TGI (MDA-MB-231 breast) was > 100 µM. For the same molecule, the TGI (MDA-MB-435) was > 100 µM, the TGI (K-562 leukemia) was > 100 µM and the TGI (OVCAR-5 ovarian) was > 100 µM. For the same molecule, the TGI (U251 CNS) was > 100 µM, the TGI (UACC-257 melanoma) was > 100 µM and the TGI (SN12C renal) was > 100 µM. For the same molecule, the TGI (PC-3 prostate) was > 100 µM, the TGI (T-47D breast) was > 100 µM and the TGI (COLO 205 colon) was > 100 µM. The TGI (SK-MEL-2 melanoma) was > 100 µM, the TGI (DU-145 prostate) was > 100 µM and the TGI (SNB-19 CNS) was > 100 µM. The TGI (HCT-116 colon) was > 100 µM, the TGI (ACHN renal) was > 100 µM and the TGI (SF-539 CNS) was > 100 µM. The TGI (HT29 colon) was > 100 µM, the TGI (HCT-15 colon) was > 100 µM and the TGI (MOLT-4 leukemia) was > 100 µM. The TGI (LOX IMVI melanoma) was > 100 µM, the TGI (NCI-H460 lung) was > 100 µM and the TGI (786-0 renal) was > 100 µM. The TGI (CAKI-1 renal) was > 100 µM and the TGI (NCI-H522 lung) was > 100 µM.
